Laboratory results from article PMC12951562, “SH2scan: Mapping SH2 Domain-Ligand Binding Selectivity for Inhibitors and Degraders” (Journal of Medicinal Chemistry, 2026).
Where two headings read alike, the source gives them in different places. Non-standard residues stand in square brackets, D forms with d. Residues, ends and D or L forms follow the SMILES beside them. *: point of attachment. pY = N[C@@H](Cc1ccc(OP(=O)(O)O)cc1)C(=O)O; Caffeoyl = O=C(/C=C/c1ccc(O)c(O)c1)*

What was measured:
Assay in all cases: biochemical
[1] = biological target: T1, STAT4 (Homo sapiens, UniProt Q14765); type: binding; settings: for percent of DMSO vehicle control: primary screen, 10 μM
T1 construct: made in house; host or cells: HEK293 (transient transfection), unpurified extract
T1 sequence (Q14765 1-748): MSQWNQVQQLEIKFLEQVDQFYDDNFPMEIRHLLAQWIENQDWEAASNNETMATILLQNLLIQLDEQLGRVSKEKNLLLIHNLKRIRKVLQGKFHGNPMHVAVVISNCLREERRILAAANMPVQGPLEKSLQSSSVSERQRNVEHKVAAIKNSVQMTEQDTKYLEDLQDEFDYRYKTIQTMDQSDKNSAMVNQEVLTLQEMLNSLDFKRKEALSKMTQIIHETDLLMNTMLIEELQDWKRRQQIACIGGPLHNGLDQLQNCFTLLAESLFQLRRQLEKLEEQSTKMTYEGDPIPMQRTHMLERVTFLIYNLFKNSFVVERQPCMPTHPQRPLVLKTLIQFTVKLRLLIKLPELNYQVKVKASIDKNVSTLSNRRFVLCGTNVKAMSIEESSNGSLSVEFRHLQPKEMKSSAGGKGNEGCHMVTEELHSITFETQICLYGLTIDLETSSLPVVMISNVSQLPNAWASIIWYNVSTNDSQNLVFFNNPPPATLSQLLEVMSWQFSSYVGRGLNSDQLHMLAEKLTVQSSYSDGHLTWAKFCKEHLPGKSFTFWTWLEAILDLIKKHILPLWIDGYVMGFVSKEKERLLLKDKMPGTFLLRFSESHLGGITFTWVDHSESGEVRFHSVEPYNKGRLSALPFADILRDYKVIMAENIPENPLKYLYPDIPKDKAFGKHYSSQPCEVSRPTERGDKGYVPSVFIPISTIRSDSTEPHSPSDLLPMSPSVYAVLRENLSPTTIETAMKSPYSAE

[2] = biological target: T2, LCK (Homo sapiens, UniProt P06239); type: binding; settings: for percent of DMSO vehicle control at 10 µM / remaining activity at 10 µM: read-out: percent of DMSO vehicle control
T2 construct: the DNA-tagged SH2 domain concentrations used in this study were <0.1 nM; made in house; host or cells: HEK293 (transient transfection, unpurified extract)

[3] = biological target: T3, SHC1 (Homo sapiens, UniProt P29353); type: binding; settings: for remaining activity at 10 µM: read-out: percent of DMSO vehicle control
T3 construct: made in house; host or cells: HEK293 (transient transfection), unpurified extract
T3 sequence (P29353 1-583): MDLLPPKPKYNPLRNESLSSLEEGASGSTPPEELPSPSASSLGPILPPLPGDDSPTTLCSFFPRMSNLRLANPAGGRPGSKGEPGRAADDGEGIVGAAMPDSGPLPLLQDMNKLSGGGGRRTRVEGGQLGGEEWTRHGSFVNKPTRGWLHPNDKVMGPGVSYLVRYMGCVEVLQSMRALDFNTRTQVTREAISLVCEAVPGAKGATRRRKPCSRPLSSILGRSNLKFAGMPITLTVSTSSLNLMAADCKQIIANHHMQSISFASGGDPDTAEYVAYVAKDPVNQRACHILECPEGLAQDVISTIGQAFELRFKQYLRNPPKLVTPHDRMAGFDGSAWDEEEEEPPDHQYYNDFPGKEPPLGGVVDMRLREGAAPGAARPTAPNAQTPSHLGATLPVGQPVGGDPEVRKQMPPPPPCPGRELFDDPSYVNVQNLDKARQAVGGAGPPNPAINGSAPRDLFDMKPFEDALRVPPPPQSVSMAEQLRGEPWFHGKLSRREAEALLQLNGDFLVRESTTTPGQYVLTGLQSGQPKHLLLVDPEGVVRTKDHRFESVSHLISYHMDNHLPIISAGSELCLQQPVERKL

[4] = biological target: T4, SOCS3 (Homo sapiens, UniProt O14543); type: binding; settings: for remaining activity at 10 µM: read-out: percent of DMSO vehicle control; for KD: dose-response
T4 construct: made in house; host or cells: HEK293 (transient transfection), unpurified extract
T4 sequence (O14543 1-225): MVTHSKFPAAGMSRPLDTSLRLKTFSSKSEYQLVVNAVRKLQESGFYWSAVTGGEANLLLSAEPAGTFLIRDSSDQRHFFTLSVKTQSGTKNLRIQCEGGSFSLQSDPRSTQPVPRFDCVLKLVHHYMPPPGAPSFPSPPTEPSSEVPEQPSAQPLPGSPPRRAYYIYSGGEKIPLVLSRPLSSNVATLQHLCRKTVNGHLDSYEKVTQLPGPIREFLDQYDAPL

[5] = biological target: T5, STAT5B(N642H) (Homo sapiens, UniProt P51692, N642H); type: binding; settings: for percent of DMSO vehicle control at 10 µM / remaining activity at 10 µM: read-out: percent of DMSO vehicle control
T5 construct: made in house; host or cells: HEK293 (transient transfection), unpurified extract
T5 sequence (P51692 1-787 N642H): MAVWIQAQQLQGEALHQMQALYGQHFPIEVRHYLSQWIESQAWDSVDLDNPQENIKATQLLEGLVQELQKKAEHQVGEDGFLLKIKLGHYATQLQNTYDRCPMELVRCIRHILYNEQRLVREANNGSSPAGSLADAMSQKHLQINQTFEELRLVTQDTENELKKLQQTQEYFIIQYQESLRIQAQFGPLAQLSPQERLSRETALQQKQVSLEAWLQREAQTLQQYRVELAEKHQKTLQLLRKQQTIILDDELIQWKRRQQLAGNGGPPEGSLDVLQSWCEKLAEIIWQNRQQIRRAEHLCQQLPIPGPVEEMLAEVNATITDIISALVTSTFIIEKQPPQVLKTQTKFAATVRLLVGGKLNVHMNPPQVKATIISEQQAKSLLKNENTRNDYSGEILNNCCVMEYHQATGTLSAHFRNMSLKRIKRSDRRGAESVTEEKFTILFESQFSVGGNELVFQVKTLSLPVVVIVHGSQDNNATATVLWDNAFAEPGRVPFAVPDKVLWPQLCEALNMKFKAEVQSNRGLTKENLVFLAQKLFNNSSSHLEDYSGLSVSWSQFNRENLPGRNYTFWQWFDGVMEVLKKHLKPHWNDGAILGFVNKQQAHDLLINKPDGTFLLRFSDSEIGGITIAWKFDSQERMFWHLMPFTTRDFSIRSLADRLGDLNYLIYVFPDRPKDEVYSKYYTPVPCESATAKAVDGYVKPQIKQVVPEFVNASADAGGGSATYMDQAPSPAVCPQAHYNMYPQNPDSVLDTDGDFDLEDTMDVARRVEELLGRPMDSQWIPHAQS

[6] = biological target: T6, ZAP70(SH2dom1.dom2.) (Homo sapiens, UniProt P43403); settings: for remaining activity at 10 µM: read-out: percent of DMSO vehicle control
T6 sequence (P43403 1-254 limits assumed): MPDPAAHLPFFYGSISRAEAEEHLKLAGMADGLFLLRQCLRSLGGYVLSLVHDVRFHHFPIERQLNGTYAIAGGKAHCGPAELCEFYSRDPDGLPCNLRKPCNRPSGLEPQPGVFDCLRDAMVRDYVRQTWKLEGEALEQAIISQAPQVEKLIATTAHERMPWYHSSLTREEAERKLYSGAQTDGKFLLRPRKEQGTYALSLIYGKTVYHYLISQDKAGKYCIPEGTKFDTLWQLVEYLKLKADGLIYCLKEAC

T2 sequence (P06239 127-224 limits assumed): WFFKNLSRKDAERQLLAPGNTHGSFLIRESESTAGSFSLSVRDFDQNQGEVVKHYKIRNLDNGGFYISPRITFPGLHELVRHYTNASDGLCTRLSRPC

Structure (SMILES)	percent of DMSO vehicle control [1] [%]	percent of DMSO vehicle control at 10 µM [2] [%]	remaining activity at 10 µM [3] [%]	remaining activity at 10 µM [4] [%]	remaining activity at 10 µM [6] [%]	percent of DMSO vehicle control at 10 µM [5] [%]	remaining activity at 10 µM ([2]; primary screen, 10 μM) [%]	remaining activity at 10 µM ([3]; primary screen, 10 μM) [%]	KD [4]	remaining activity at 10 µM ([4]; primary screen, 10 μM) [%]	remaining activity at 10 µM ([5]; primary screen, 10 μM) [%]	also measured
CC[C@H](C)[C@H](NC(=O)[C@H](CCC(=O)O)NC(=O)[C@H](CCC(=O)O)NC(=O)[C@H](Cc1ccc(OP(=O)(O)O)cc1)NC(C)=O)C(=O)N[C@@H](CCC(=O)O)C(N)=O [Ac-pYEEIE-NH2] (Ac-[pY]EEIE-NH2)	106.6	–	–	–	–	–	–	–	–	–	–	percent of DMSO vehicle control ([2]; primary screen, 10 μM): 44.2±3.3%; percent of DMSO vehicle control ([3]; primary screen, 10 μM): 105.0%; percent of DMSO vehicle control ([4]; primary screen, 10 μM): 149.7%; percent of DMSO vehicle control ([5]; primary screen, 10 μM): 115.5%
CC(=O)N[C@@H](Cc1ccc(CP(=O)(O)O)cc1)C(=O)NC1(C(=O)N[C@@H](CC(N)=O)C(=O)NCCCc2c(O)ccc3ccccc23)CCCCC1 [CGP78850]	91.4±14.0	46 ± 3.7	49.8 ± 6.2	116 ± 4.4	91.6 ± 5.3	107 ± 9.8	–	–	–	–	–	–
CC[C@H](C)[C@H](NC(=O)[C@H](CCC(=O)O)NC(=O)[C@H](CCC(=O)O)NC(=O)[C@H](Cc1ccc(OP(=O)(O)O)cc1)NC(=O)/C=C/c1ccc(O)c(O)c1)C(=O)N[C@@H](CCC(=O)O)C(=O)O [Caffeic acid-pYEEIE] (Caffeoyl-[pY]EEIE-OH)	8.8±0.4	0	0	5.3 ± 0.3	32.3 ± 1.6	9.4 ± 1	–	–	–	–	–	Kd [1]: 4400 ± 370 nM; Kd [2]: 3.7 ± 0.62 nM; Kd [3]: 320 ± 280 nM; Kd [4]: 1800 ± 2000 nM; Kd [6]: 6.9 ± 0.0038 µM; Kd [5]: 2400 ± 2300 nM
O=C(CCl)Nc1cccc(CNC(=O)[C@H](Cc2ccc(OP(=O)(O)O)cc2)NC(=O)Cc2ccc(F)cc2)c1 [MN551]	22±0.8	–	–	–	33.5	–	98.7 ± 0.5	112	No Hit	24.4	76.9	KD ([1]; dose-response): No Hit
NC(=O)CC[C@H](NC(=O)[C@@H]1CC[C@@H]2CCN(C(=O)CCCCCC#Cc3cccc4c3CN(C3CCC(=O)NC3=O)C4=O)C[C@H](NC(=O)c3cc4cc(C(F)(F)P(=O)(O)O)ccc4[nH]3)C(=O)N21)C(=O)NC(c1ccccc1)c1ccccc1 (some centres unmarked) [SD-36]	1.1±0.2	97.3 ± 3.9	62 ± 8.8	100 ± 1.2	95.6 ± 1.3	3.2 ± 0.8	–	–	–	–	–	Kd ([1]; dose-response): 120 ± 110 nM; Kd ([5]; dose-response): 2400 ± 740 nM
CC(=O)N1CC[C@H]2CC[C@@H](C(=O)N[C@@H](CCC(N)=O)C(=O)NC(c3ccccc3)c3ccccc3)N2C(=O)[C@@H](NC(=O)c2cc3cc(C(F)(F)P(=O)(O)O)ccc3[nH]2)C1 [SI-109]	7.3±0.1	127	112	153	129	123	–	–	–	–	–	Kd [1]: 240 ± 106 nM; Kd [5]: 19000 ± 8500 nM
C/C(=C\C(=O)N[C@H](C(=O)N1CCC[C@H]1C(=O)N(c1ccccc1)c1ccc(I)cc1)C(C)(C)C)c1ccc(OP(=O)(O)O)cc1 [STAT6-IN-1]	0.0±0.0	–	–	–	51.4	–	48.3 ± 1.3	48.2 ± 4.5	No Hit	39.3 ± 22.1	0	Kd ([1]; dose-response, read-out: KD): 220 ± 67 nM; Kd ([5]; dose-response, read-out: KD): 5.6 ± 2.1 nM
CC(C)(C)[C@H](NC(=O)/C=C/c1ccc(OP(=O)(O)O)cc1)C(=O)N1CCC[C@H]1C(=O)N(c1ccccc1)c1ccc(I)cc1 [STAT6-IN-3]	0.2±0.3	–	–	–	60.7 ± 32.9	–	72 ± 20.4	62.5 ± 13.9	No Hit	52.6 ± 50.6	1.3 ± 7.7	Kd ([1]; dose-response, read-out: KD): 520 ± 270 nM; Kd ([5]; dose-response, read-out: KD): 36 ± 27 nM
O=C(COc1ccc2cc(C(=O)Nc3ccccc3)ccc2c1)NCc1ccc(OP(=O)(O)O)c(OP(=O)(O)O)c1 [Stafib-1]	57.6±15.3	–	–	–	58 ± 19.5	–	97.4 ± 7.6	67.3 ± 22.1	–	72.7 ± 29	12.5 ± 13.5	–
